IC50 data for 6 compounds are collected here from patent US20110257177A1, “BENZYLTHIOTETRAZOLE INHIBITORS OF STORE OPERATED CALCIUM RELEASE” (CalciMedica, Inc., priority 2008, published 2011).

The test system of this test is JR^251 or RBL cells. Put plainly: Fluorescence-based assay of store-operated calcium entry, IC50 in either JR^251 or RBL cells, or both. The format is cell-based. The procedure: B. Fluorescence-based Assay of Store-Operated Calcium Entry in RBL-2H3Cells.
RBL-2H3 cells are obtained from ATCC and maintained in complete medium with 10% FBS at 37° C./6% CO2.
The day prior to performing the assay, RBL-2H3 cells are plated in 50 μL of complete medium in a 384 well plate. Cells are grown at 37° C./6% CO2 overnight and grow to 50-60% confluence by the next day. On the assay day, 1.5 μM Fluo-4-AM dye (Invitrogen) in complete medium is added and incubated for 1 hour at RT. Cells are washed twice in Ca^2+-free HBSS buffer and 35 μL Ca^2+-free HBSS buffer is added to each well. 10 μL of a test compound prepared in a Ca^2+-free HBSS solution at 4.5× of the desired concentration is added to a well and incubated for 5 minutes at RT. 10 μL of thapsigargin prepared in a Ca^2+-free HBSS solution at 5.5× of the desired concentration (5.5 uM) is added to each well and incubated for an additional 25 minutes. The initial baseline fluorescence signal is measured with a FLIPR^384 (Molecular Devices) plate reader. 5 μL of 12× calcium in HBSS (12 mM) is added and changes in cellular fluorescence are measured with the FLIPR^384 plate reader. In each well, the change in the fluorescent signal as a function of time due to calcium entry into the cell is determined by calculating the difference between the fluorescent signal measured 7 seconds after calcium addition and the initial baseline fluorescence signal at time zero (t=0). This parameter is designated Upslope. The IC50 value is calculated as the concentration at which 50% of the Upslope is inhibited.
C. Fluorescence-based Assay of Store-Operated Calcium Entry in Jurkat Cells.
Jurkat E6-1 cells were obtained from ATCC and maintained in complete medium with 10% FBS at 37° C./6% CO2.
The day prior to performing the assay, Jurkat E6-1 cells are seeded at a density of 2 million cells/mL in complete medium in a T-175 flask. Cells are grown at 37° C./6% CO2 overnight. On the following day, 1.5 μM Fluo-4-AM dye (Invitrogen) in complete medium is added and incubated for 1 hour at RT. Cells are harvested, washed twice in Ca^2+-free HBSS buffer and plated in 35 μL Ca^2+-free HBSS buffer in a 384 well plate. 10 μL of a test compound prepared in a Ca^2+-free HBSS solution at 4.5× of the desired concentration is added to a well and incubated for 5 minutes at RT. 10 μL of thapsigargin prepared in a Ca^2+-free HBSS solution at 5.5× of the desired concentration (5.5 uM) is added to each well and incubated for an additional 25 minutes. The initial baseline fluorescence signal is measured with a FLIPR^384 (Molecular Devices) plate reader. 5 μL of 12× calcium in HBSS (12 mM) is added and changes in cellular fluorescence are measured with the FLIPR^384 plate reader. In each well, the change in the fluorescent signal as a function of time due to calcium entry into the cell is determined by calculating the difference between the fluorescent signal measured 7 seconds after calcium addition and the initial baseline fluorescence signal at time zero (t=0). This parameter is designated Upslope. The IC50 value is calculated as the concentration at which 50% of the Upslope is inhibited.

Take `Cc1ccccc1CSc1nnnn1-c1cccc(C)c1C` [1-(2,3-dimethylphenyl)-5-(2-methylbenzylthio)-1H-tetrazole]: the IC50 – broadly, the midpoint of a concentration-inhibition curve – was under 10 µM.

For `COc1ccc(CSc2nnnn2-c2ccc(C)cc2C)cc1F` [1-(2,4-dimethylphenyl)-5-(3-fluoro-4-methoxybenzylthio)-1H-tetrazole], the IC50 was under 10 µM.

For `COc1cccc(CSc2nnnn2-c2ccc(C)cc2C)c1` [1-(2,4-dimethylphenyl)-5-(3-methoxybenzylthio)-1H-tetrazole], the IC50 was under 10 µM.

On to `Cc1ccc(C)c(-n2nnnc2SC(F)(F)c2c(F)c(F)c(F)c(F)c2F)c1` [1-(2,5-dimethylphenyl)-5-(perfluorobenzylthio)-1H-tetrazole], for which the 50% inhibitory concentration (IC50) is under 10 µM.

On to `CCOc1ccc(C(C)=O)cc1CSc1nnnn1-c1cc(C)ccc1C` [1-(3-((1-(2,5-dimethylphenyl)-1H-tetrazol-5-ylthio)methyl)-4-ethoxyphenyl)ethanone], for which the IC50 is under 10 µM.

On to `Cc1ccc(C)c(-n2nnnc2SCc2ccccc2Br)c1` [5-(2-bromobenzylthio)-1-(2,5-dimethylphenyl)-1H-tetrazole], for which the concentration for half-maximal inhibition (IC50) is under 10 µM.
